Results published in US5428059A, “Benzopyran derivatives and an anti-allergic agent possessing the same as the active ingredient” (Dainippon Ink & Chemicals, Inc., priority 1991, dated 1995).

tested on: Hartley-type male guinea pigs; experiment: Guinea Pig Homogeneous Skin Passive Anaphylaxis Assay (PCA reaction); type: in vivo, guinea pig (Hartley-type); settings: 10 mg/kg oral, 48 h after sensitization
Procedure: In order to confirm the anti-allergic action of the compounds according to the present invention, as an anti-allergic action confirmation assay, the widely used Guinea Pig Homogeneous Skin Passive Anaphylaxis Assay (PCA Reaction Assay; Passive Cutaneous Anaphylaxis Reaction Assay) was carried out. The assay method used will be explained in the following.
Assay method: Hartley-type male guinea pigs (body weight: 250~300 g) were sensitized by the following procedure; a mixture of 2 μg of egg albumin (OVA) and 5 μg of aluminium hydroxide gel was administered intraperitoneally 3 times every 2 weeks, and the anti-OVA blood serum was manufactured.
The anti-blood serum obtained was then diluted 120 times using physiological saline solution, and then to groups each containing 6 shaved guinea pigs, was injected at a quantity of 0.05 ml respectively, into two positions in the back portion, inside the skin of each animal.
After the 48th hour of sensitization, 10 mg/kg of the test substance to be tested was orally administered, following which a mixture of 2 mg OVA and 5 mg of Evans Blue was administered by intraveneous injection into the hind leg, triggering the anaphylaxis reaction. As the positive control, Tranilast, a well known anti-allergic agent, was used, and in the same manner as the substances to be tested, 100 mg/kg of it was orally administered after the 48th hour of sensitization.
30 minutes after triggering the reaction, the animals were bled to death under ether anesthesia, and their back portion skins were peeled off. The long and short diameters of pigment leakage spots on the interior surface of the skins were measured, and the product of these (mm^2) were entered into formula 1 as "pigment leakage amount", from which the allergic reaction inhibitory index wins calculated. [formula]
I: Allergic reaction inhibitory index (%)
A: Pigment leakage amount of solvent control group
B: Pigment leakage amount of test substance group
C: Pigment leakage amount of […]

In the case of “3-(methoxy)-4-(decyloxy)-8-hydroxy-2H-1-benzopyran-2-one [Compound 99]”, the “Allergic reaction inhibitory index (%)” value is reported as 33%.

same assay, conditions: Cavia porcellus, 10 mg/kg oral, 48 h after sensitization, read-out: Allergic reaction inhibitory index (%)

Point of comparison: CCCCCCCCCCOc1ccc2c(OC(C)C)c(O)c(=O)oc2c1 [Compound 63, 3-hydroxy-4-(isopropoxy)-7-(decyloxy)-2H-1-benzopyran-2-one], inhibition in vivo at 10 mg/kg 37%. Against it:
- CCCCCCCCCCOc1cccc2c(OC(C)C)c(OC(C)=O)c(=O)oc12 [Compound 149, 3-(acetoxy)-4-(isopropoxy)-8-(decyloxy)-2H-1-benzopyran-2-one] — lower, 33%
- O=C(Oc1c(O)c2cc(O)ccc2oc1=O)c1ccccc1 [Compound 262, 3-(benzoyloxy)-4,6-(dihydroxy)-2H-1-benzopyran-2-one] — lower, 30%
- COc1c(O)c2cccc(OC/C=C(\C)CCC=C(C)C)c2oc1=O [Compound 162, 3-(methoxy)-4-hydroxy-8-(geranyloxy)-2H-1-benzopyran-2-one] — lower, 31%
- O=c1oc2ccc(O)cc2c(O)c1O [Compound 263, 3,4,6-trihydroxy-2H-1-benzopyran-2-one] — higher, 42%
- COc1ccc2oc(=O)c(OC(C)=O)c(O)c2c1 [Compound 278, 3-(acetoxy)-4-(hydroxy)-6-(methoxy)-2H-1-benzopyran-2-one] — lower, 36%
- CC(C)=CCC/C(C)=C/COc1cccc2c(OC(C)C)c(O)c(=O)oc12 [Compound 163, 3-hydroxy-4-(isopropoxy)-8-(geranyloxy)-2H-1-benzopyran-2-one] — lower, 32%
- COc1c(OC/C=C(\C)CCC=C(C)C)c(=O)oc2cc(OC/C=C(\C)CCC=C(C)C)ccc12 [Compound 87, 3,7-(digeranyloxy)-4-(methoxy)-2H-1-benzopyran-2-one] — lower, 31%
- CC(=O)Oc1c(O)c(=O)oc2cccc(O)c12 [Compound 178, 3,5-(dihydroxy)-4-(acetoxy)-2H-1-benzopyran-2-one] — lower, 30%
- COc1cccc2c(O)c(OC(=O)c3ccccc3)c(=O)oc12 [Compound 110, 3-(benzoyloxy)-4-hydroxy-8-(methoxy)-2H-1-benzopyran-2-one] — lower, 31%
- COc1ccc2c(OC/C=C(\C)CCC=C(C)C)c(OC(C)=O)c(=O)oc2c1 [Compound 40, 3-(acetoxy)-4-(geranyloxy)-7-(methoxy)-2H-1-benzopyran-2-one] — lower, 34%
- CC(C)=CCC/C(C)=C/COc1ccc2c(O)c(O)c(=O)oc2c1 [Compound 75, 3,4-(hydroxy)-7-(geranyloxy)-2H-1-benzopyran-2-one] — higher, 45%
- COc1c(OC/C=C(\C)CCC=C(C)C)c(=O)oc2c(OC/C=C(\C)CCC=C(C)C)cccc12 [Compound 171, 3,8-(digeranyloxy)-4-(methoxy)-2H-1-benzopyran-2-one] — lower, 33%
- CCCCCCCCCCOc1cccc2oc(=O)c(OC(C)=O)c(OC(=O)c3ccccc3)c12 [Compound 232, 3-(acetoxy)-4-(benzoyloxy)-5-(decyloxy)-2H-1-benzopyran-2-one] — lower, 32%
- COc1c(OC(C)=O)c2cccc(O)c2oc1=O [Compound 101, 3-(methoxy)-4-(acetoxy)-8-hydroxy-2H-1-benzopyran-2-one] — lower, 30%
- CCCCCCCCCCOc1cccc2c(OC(=O)c3ccccc3)c(OC(C)=O)c(=O)oc12 [Compound 146, 3-(acetoxy)-4-(benzoyloxy)-8-(decyloxy)-2H-1-benzopyran-2-one] — lower, 30%
- CC(=O)Oc1c(O)c(=O)oc2c(O)cccc12 [Compound 94, 3,8-(dihydroxy)-4-(acetoxy)-2H-1-benzopyran-2-one] — lower, 36%
- CCCCCCCCCCOc1c(O)c2cc(O)ccc2oc1=O [Compound 266, 3-(decyloxy)-4,6-(dihydroxy)-2H-1-benzopyran-2-one] — lower, 33%
- COc1cccc2oc(=O)c(OC(C)=O)c(OC)c12 [Compound 201, 3-(acetoxy)-4,5-(dimethoxy)-2H-1-benzopyran-2-one] — lower, 31%
- CCCCCCCCCCOc1ccc2c(O)c(O)c(=O)oc2c1 [Compound 59, 3,4-(dihydroxy)-7-(decyloxy)-2H-1-benzopyran-2-one] — higher, 47%
- CCCCCCCCCCOc1c(O)c2cccc(O)c2oc1=O [Compound 97, 3-(decyloxy)-4,8-(dihydroxy)-2H-1-benzopyran-2-one] — lower, 34%
- CC(C)=CCC/C(C)=C/COc1c(OC/C=C(\C)CCC=C(C)C)c2cccc(O)c2oc1=O [Compound 109, 3,4-(digeranyloxy)-8-hydroxy-2H-1-benzopyran-2-one] — lower, 34%
- CC(C)=CCC/C(C)=C/COc1c(OC(C)C)c2cccc(OC(C)C)c2oc1=O [Compound 140, 3-(geranyloxy)-4,8-(diisopropoxy)-2H-1-benzopyran-2-one] — lower, 30%
- COc1c(OC(C)=O)c(=O)oc2cc(OC(C)C)ccc12 [Compound 51, 3-(acetoxy)-4-(methoxy)-7-(isopropoxy)-2H-1-benzopyran-2-one] — lower, 30%
- CC(C)=CCC/C(C)=C/COc1c(OC(C)C)c(=O)oc2cc(O)ccc12 [Compound 25, 3-(isopropoxy)-4-(geranyloxy)-7-hydroxy-2H-1-benzopyran-2-one] — lower, 32%
- COc1ccc2c(OC(=O)c3ccccc3)c(OC)c(=O)oc2c1 [Compound 30, 3,7-(dimethoxy)-4-(benzoyloxy)-2H-1-benzopyran-2-one] — lower, 31%
- O=C(Oc1c(O)c2ccc(O)cc2oc1=O)c1ccccc1 [Compound 4, 3-(benzoyloxy)-4,7-dihydroxy-2H-1-benzopyran-2-one] — higher, 43%
- COc1c(O)c2cccc(OC)c2oc1=O [Compound 115, 3,8-(dimethoxy)-4-hydroxy-2H-1-benzopyran-2-one] — lower, 33%
- COc1ccc2c(O)c(OC(C)C)c(=O)oc2c1 [Compound 34, 3-(isopropoxy)-4-hydroxy-7-(methoxy)-2H-1-benzopyran-2-one] — higher, 39%
- CC(C)Oc1ccc2c(O)c(O)c(=O)oc2c1 [Compound 45, 3,4-dihydroxy-7-(isopropoxy)-2H-1-benzopyran-2-one] — higher, 58%
- CCCCCCCCCCOc1cccc2c(OC/C=C(\C)CCC=C(C)C)c(OC(C)C)c(=O)oc12 [Compound 156, 3-(isopropoxy)-4-(geranyloxy)-8-(decyloxy)-2H-1-benzopyran-2-one] — lower, 32%
- CCCCOc1cccc2oc(=O)c(O)c(O)c12 [Compound 227, 3,4-(dihydroxy)-5-(butoxy)-2H-1-benzopyran-2-one] — higher, 50%
- CC(C)=CCC/C(C)=C/COc1c(OC/C=C(\C)CCC=C(C)C)c2cccc(OC(C)C)c2oc1=O [Compound 142, 3,4-(digeranyloxy)-8-(isopropoxy)-2H-1-benzopyran-2-one] — lower, 31%
- CC(=O)Oc1c(O)c(=O)oc2c(OC/C=C(\C)CCC=C(C)C)cccc12 [Compound 160, 3-hydroxy-4-(acetoxy)-8-(geranyloxy)-2H-1-benzopyran-2-one] — lower, 34%
- CC(C)=CCC/C(C)=C/COc1ccc2c(OC(C)C)c(O)c(=O)oc2c1 [Compound 79, 3-hydroxy-4-(isopropoxy)-7-(geranyloxy)-2H-1-benzopyran-2-one] — lower, 32%
- COc1cccc2oc(=O)c(OC(C)=O)c(OC(=O)c3ccccc3)c12 [Compound 197, 3-(acetoxy)-4-(benzoyloxy)-5-(methoxy)-2H-1-benzopyran-2-one] — lower, 32%
- COc1ccc2oc(=O)c(O)c(O)c2c1 [Compound 272, 3,4-(dihydroxy)-6-(methoxy)-2H-1-benzopyran-2-one] — lower, 30%
- CCCCCCCCCCOc1cccc2oc(=O)c(OC(C)C)c(OC/C=C(\C)CCC=C(C)C)c12 [Compound 242, 3-(isopropoxy)-4-(geranyloxy)-5-(decyloxy)-2H-1-benzopyran-2-one] — lower, 30%
- O=C(Oc1c(O)c2cccc(O)c2oc1=O)c1ccccc1 [Compound 92, 3-(benzoyloxy)-4,8-dihydroxy-2H-1-benzopyran-2-one] — lower, 33%
- CCCCCCCCCCOc1cccc2c(O)c(OC/C=C(\C)CCC=C(C)C)c(=O)oc12 [Compound 151, 3-(geranyloxy)-4-hydroxy-8-(decyloxy)-2H-1-benzopyran-2-one] — lower, 34%
- CCCCCCCCCCOc1c(OC(C)=O)c(=O)oc2cccc(OC(C)C)c12 [Compound 217, 3-(acetoxy)-4-(decyloxy)-5-(isopropoxy)-2H-1-benzopyran-2-one] — lower, 30%
- COc1c(OC/C=C(\C)CCC=C(C)C)c(=O)oc2cc(O)ccc12 [Compound 24, 3-(geranyloxyl)-4-(methoxy)-7-hydroxy-2H-1-benzopyran-2-one] — lower, 33%
- CCCCCCCCCCOc1cccc2oc(=O)c(O)c(OC(C)=O)c12 [Compound 231, 3-hydroxy-4-(acetoxy)-5-(decyloxy)-2H-1-benzopyran-2-one] — lower, 31%
